Measured values taken from patent US20260234139A1, “PGDH INHIBITORS AND METHODS OF MAKING AND USING” (Epirium Bio Inc., priority 2023, published 2026).

Columns and labels:
15-PGDH/HPGD = target: T1, 15-PGDH/HPGD (Homo sapiens, UniProt P15428); assay: hPGDH inhibitor screening biochemical assay; conditions: 10 nM enzyme, 15 μM Prostaglandin E2, 0.25 mM NAD, fluorescence ex/em 340/485 nm
T1 construct: purchased R&D System 5660-DH
T1 sequence (P15428 1-266): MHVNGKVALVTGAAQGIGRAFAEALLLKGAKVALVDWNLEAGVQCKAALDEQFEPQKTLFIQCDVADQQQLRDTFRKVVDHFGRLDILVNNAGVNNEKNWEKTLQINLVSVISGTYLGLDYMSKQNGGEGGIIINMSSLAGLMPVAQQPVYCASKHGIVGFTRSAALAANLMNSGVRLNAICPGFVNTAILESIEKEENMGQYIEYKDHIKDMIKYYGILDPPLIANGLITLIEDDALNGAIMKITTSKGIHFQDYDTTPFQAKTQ
Procedure, shortened: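 Recombinant 15-PGDH (10 nM) preincubated with compound 10 min at 37° C, then 15 μM PGE2 and 0.25 mM NAD⁺ added for 10 min at room temperature in 50 mM Tris-HCl pH 7.5, 0.01% Tween 20. NADH fluorescence at ex/em 340/485 nm; 10-point dose response.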

A549 = A549 EC50 (cell assay, method not described); assay type: cell-based; conditions: Homo sapiens, A549, A549

Structure (SMILES)	IC50 (15-PGDH/HPGD) [nM]	EC50 (A549) [nM]
C[S+]([O-])c1cccc(-n2ncc3cc([C@H](O)COC4CCC4)cnc32)c1 (some centres unmarked) [Compound 125B]	≥ 1000	≥ 1000
Cc1nn(-c2ccc(C(=O)O)cc2)c2ncc([C@@H](O)COC3CC3)cc12 [Compound 126A]	< 100	100 to 1000
Cc1nn(-c2ccc(C(=O)O)cc2)c2ncc([C@H](O)COC3CC3)cc12 [Compound 126B]	< 100	100 to 1000
C[C@H]1C[C@@H](OC[C@H](O)c2cnc3c(cnn3-c3ccc(C(=O)O)cc3)c2)C1 [Compound 127A]	< 100	≥ 1000
C[C@H]1C[C@@H](OC[C@@H](O)c2cnc3c(cnn3-c3ccc(C(=O)O)cc3)c2)C1 [Compound 127B]	< 100	< 100
C[C@H]1C[C@H](OC[C@H](O)c2cnc3c(cnn3-c3ccc(C(=O)O)cc3)c2)C1 [Compound 127C]	100 to 1000	≥ 1000
C[C@H]1C[C@H](OC[C@@H](O)c2cnc3c(cnn3-c3ccc(C(=O)O)cc3)c2)C1 [Compound 127D]	< 100	< 100
